`Cc1nccn1Cc1ccc(NC(=O)C(F)(F)F)cc1C(F)(F)F`: the melting point fell in the range of 229 to 230 °C.

The compound `COc1cc(NC(N)=S)cc(OC)c1OC` returned a melting point of 203 to 205 °C.

For the compound `CCCCc1cnc2ccc(C(=O)O)cc2c1O`, the melting point was 260 °C.

`COc1ccc2nc3c(nc2c1)SC(C#N)=C(C#N)S3` returned a melting point of 154 to 156 °C.

`COCCOc1ccc(/C=C/C(=O)NS(=O)(=O)c2cccc(C)c2)c(Oc2ncc(C(F)(F)F)cc2Cl)c1`: the melting point lay within 147 to 148 °C.

As for `CC(C)OC1COc2ccc(OCc3ccc4ccccc4n3)cc2C1=O` (stereo unspecified), the melting point was 85 °C.

In turn, `NC1(C2CCCC2)NC=Nc2[nH]cc(-c3cccc(Oc4ccccc4)c3)c21` (stereo unspecified) yielded a melting point of 128 °C.

`O=C(Nc1ccc(C(=O)N2CCCCc3ccccc32)cc1)c1ccccc1OCCCCCCN1C(=O)c2ccccc2C1=O` displayed a melting point of 145 to 146 °C.

Take `COc1cnc(OC)n2c(N)nnc12`: the melting point was in the range of 232 to 235 °C.

`CCC(=O)Nc1cscn1` displayed a melting point of 129 to 132 °C.

`Oc1nc2nc(SCc3ccccc3)nn2c(O)c1-c1c(F)cc(F)cc1F` showed a melting point of 273 °C.

The compound `COc1ccc(/C(=C\C=C\C(=O)Oc2ccc([N+](=O)[O-])cc2)C2CC2)cc1` gave a melting point of 111 to 112 °C.

`O=C1NC(=O)N(Cc2ccccc2)C(=O)C1Cc1ccccc1` (stereo unspecified) had a melting point of 107 to 109 °C.

As for `COc1ccc(CN(C)CCc2ccc(NC(=O)c3cccc4c(=O)c5cccc(F)c5[nH]c34)c(C)c2)cc1OC`, the melting point stood at 125 °C.

The compound `CN(C)CCOc1cc2c(Nc3ccc(Oc4ccccc4)cc3)c(C#N)cnc2cn1` gave a melting point of 159 to 161 °C.

On to `CC(N1C(=O)C(=O)N(c2ccc(C(C)(C)C)cc2)C1=S)C(C)(C)C` (stereo unspecified), for which the melting point lay in the range of 209 to 210 °C.

Compound `N#Cc1cccc2c1nc(-c1c(F)cccc1F)n2Cc1c(F)cccc1F` showed a melting point of 153 to 155 °C.

`Fc1ccccc1C1=NCc2c[nH]cc2-c2ccc(Cl)cc21` yielded a melting point of 197 to 199 °C.

As to `Nc1ncnc2c1ncn2Cc1oc2ccccc2c(=O)c1-c1cccc(F)c1`, the melting point was 224 to 227 °C.

`CC(C)(C)C(NC(=O)c1ccc(Cl)cc1)NC(=S)Nc1cccnc1` (stereo unspecified) gave a melting point of 164 to 167 °C.

As for `COC(=O)CSC(c1ccccc1OC)c1ccccc1OC`, the melting point is 65 to 67 °C.

Consider `CC(O)CCNc1cc(C(=O)O)cc(S(N)(=O)=O)c1Oc1ccccc1` (stereo unspecified), for which the melting point was 245 to 247 °C.

In the case of `Cn1c(=O)c2c(N)ccnc2n(C)c1=O`, the melting point lay in the range of 233 to 235 °C.

As for `CCn1c(C)c(C(=O)c2ccc([N+](=O)[O-])cc2C(=O)O)c2ccccc21`, the melting point fell in the range of 203 to 204 °C.

Consider `CCCCCCCCCCOc1cc2oc3c(C(=O)OCC)cccc3c(=O)c2cc1CCC(=O)OCC`, for which the melting point is 61 to 63 °C.

In the case of `Cc1cc(Oc2cccc(C#N)n2)n(C)n1`, the melting point amounted to 95 °C.

Compound `CN(c1ccc(Cl)cc1)c1nc(=O)c2ccncc2s1` yielded a melting point of 255 to 256 °C.

`COc1ccc(C(Sc2ccc3ccccc3c2N)C(O)C(=O)O)cc1` (stereo unspecified) yielded a melting point of 160 to 161 °C.

In turn, `CN1N=C(Br)C2N=C(Cl)N=C(O)C21` (stereo unspecified) gave a melting point of 260 to 262 °C.

Take `CCC1c2nc[nH]c2CCN1C(=S)NC` (stereo unspecified): the melting point stood at 230 °C.

In turn, `Cn1cc(CS(C)(=O)=O)c(=O)c2ccc(C(F)(F)F)cc21` had a melting point of 240 to 242 °C.

Take `CC(C)NC(=O)Nc1ccnc(Br)c1`: the melting point lay in the range of 136 to 138 °C.

As to `Cc1nnc(-c2ccc3occ(-c4ccc(S(C)(=O)=O)cc4)c3n2)o1`, the melting point fell in the range of 250 to 251 °C.

Compound `NC(=O)COCC(N)=S` came in with a melting point of 164 to 168 °C.

For the compound `C#Cc1cc(Nc2ncnc3cnc(N)cc23)ccc1F`, the melting point lay within 218 to 222 °C.

`COc1cc(OC)nc(NC(=O)NS(=O)(=O)c2cscc2C)n1` came in with a melting point of 175 to 178 °C.

In general, melting point refers to the temperature of the solid-liquid transition.

These data come from a melting point compilation (Tetko et al.; mined from patent text by program, amines drawn as free bases though some values may be those of a salt).
